The record followed here is ChEMBL document CHEMBL2046285, “Synthesis of novel imbricatolic acid analogues via insertion of N-substituted piperazine at C-15/C-19 positions, displaying glucose uptake stimulation in L6 skeletal muscle cells” (2012).

Molecules are shown by their SMILES.

The test system of the test is L6. Kind of test: Antidiabetic activity in rat L6 cells assessed as stimulation of glucose uptake at 10 uM. It is filed as functional.
`C=C1CC[C@@H]2[C@](C)(CCC[C@]2(C)C(=O)O)[C@H]1CC[C@H](C)CCO` [IMBRICATOLIC ACID]: the Activity stood at 34.41%. Turning to `C=C1CC[C@@H]2[C@](C)(CCC[C@]2(C)C(=O)N2CCN(C/C=C/c3ccccc3)CC2)[C@H]1CC[C@H](C)CCOC(C)=O`, the Activity is reported as 16.3%. In the case of `C=C1CC[C@@H]2[C@](C)(CCC[C@]2(C)C(=O)OC)[C@H]1CC[C@H](C)CCOC(=O)CN1CCN(C(C)=O)CC1`, the Activity is on record as -5.9%. As for `C=C1CC[C@@H]2[C@](C)(CCC[C@]2(C)C(=O)N2CCN(c3ccc(C)cc3)CC2)[C@H]1CC[C@H](C)CCOC(C)=O`, the figure is 2.21%; as for `C=C1CC[C@@H]2[C@](C)(CCC[C@]2(C)C(=O)N2CCN(c3cccc(OC)c3)CC2)[C@H]1CC[C@H](C)CCOC(C)=O`, 54.73%. In the case of `C=C1CC[C@@H]2[C@](C)(CCC[C@]2(C)C(=O)OC)[C@H]1CC[C@H](C)CCOC(=O)CN1CCN(c2ccc(C)cc2)CC1`, the Activity amounted to 15.27%. With `C=C1CC[C@@H]2[C@](C)(CCC[C@]2(C)C(=O)OC)[C@H]1CC[C@H](C)CCOC(=O)CN1CCN(c2cccc(OC)c2)CC1`, the Activity amounted to 40.9%. In the case of `C=C1CC[C@@H]2[C@](C)(CCC[C@]2(C)C(=O)OC)[C@H]1CC[C@H](C)CCOC(=O)CN1CCN(c2ccc(F)cc2)CC1`, the Activity was determined as 28.86%. For the molecule `C=C1CC[C@@H]2[C@](C)(CCC[C@]2(C)C(=O)N2CCN(c3ccc(Cl)cc3)CC2)[C@H]1CC[C@H](C)CCOC(C)=O`, the Activity is reported as 40.79%. Take `C=C1CC[C@@H]2[C@](C)(CCC[C@]2(C)C(=O)N2CCN(c3ccc(F)cc3)CC2)[C@H]1CC[C@H](C)CCOC(C)=O`: the Activity turned out to be 22.45%.

`C=C1CC[C@@H]2[C@](C)(CCC[C@]2(C)C(=O)N2CCN(C(C)=O)CC2)[C@H]1CC[C@H](C)CCOC(C)=O`: the Activity is listed as -1.96%. The figure for `CN(CCOc1ccc(CC2SC(=O)NC2=O)cc1)c1ccccn1` (stereo not drawn) [ROSIGLITAZONE] is 54.5%.

In the case of `C=C1CC[C@@H]2[C@](C)(CCC[C@]2(C)C(=O)N2CCN(C)CC2)[C@H]1CC[C@H](C)CCOC(C)=O`, the Activity was -10.16%. For the molecule `C=C1CC[C@@H]2[C@](C)(CCC[C@]2(C)C(=O)OC)[C@H]1CC[C@H](C)CCOC(=O)CN1CCN(C)CC1`, the Activity is -3.75%. With `C=C1CC[C@@H]2[C@](C)(CCC[C@]2(C)C(=O)OC)[C@H]1CC[C@H](C)CCOC(=O)CN1CCN(c2ccc(Cl)cc2)CC1`, the Activity was 39.55%. As to `C=C1CC[C@@H]2[C@](C)(CCC[C@]2(C)C(=O)OC)[C@H]1CC[C@H](C)CCOC(=O)CN1CCN(c2ccccc2)CC1`, the Activity worked out at 29.51%. Take `C=C1CC[C@@H]2[C@](C)(CCC[C@]2(C)C(=O)OC)[C@H]1CC[C@H](C)CCOC(=O)CN1CCN(C/C=C/c2ccccc2)CC1`: the Activity is listed as 18.58%.

On to `C=C1CC[C@@H]2[C@](C)(CCC[C@]2(C)C(=O)N2CCN(c3ccccc3)CC2)[C@H]1CC[C@H](C)CCOC(C)=O`, for which the Activity was found to be 24.14%.
